Assay results taken from PubChem BioAssay (NCI).
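Five concentrations, 48 hours, 96-well plates. TGI: concentration producing complete growth inhibition.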

Legend:
Experiment in all cases: NCI anticancer screen, dose series, 48 h
SK-MEL-2 melanoma = system: SK-MEL-2 melanoma
M19-MEL melanoma = system: M19-MEL melanoma
NCI-H522 lung = system: NCI-H522 lung
SK-OV-3 ovarian = system: SK-OV-3 ovarian
SF-268 CNS = system: SF-268 CNS
OVCAR-4 ovarian = system: OVCAR-4 ovarian
HCC-2998 colon = system: HCC-2998 colon
RXF 393 renal = system: RXF 393 renal
SF-295 CNS = system: SF-295 CNS
TK-10 renal = system: TK-10 renal
SNB-19 CNS = system: SNB-19 CNS
MCF7 breast = system: MCF7 breast
T-47D breast = system: T-47D breast
A549 NSCLC = system: A549 NSCLC
KM20L2 colon = system: KM20L2 colon
HCT-116 colon = system: HCT-116 colon
HT29 colon = system: HT29 colon
786-0 renal = system: 786-0 renal
XF 498 CNS = system: XF 498 CNS
SW-620 colon = system: SW-620 colon
UO-31 renal = system: UO-31 renal
IGROV1 ovarian = system: IGROV1 ovarian
DU-145 prostate = system: DU-145 prostate
MDA-MB-231 breast = system: MDA-MB-231 breast
DLD-1 colon = system: DLD-1 colon
OVCAR-5 ovarian = system: OVCAR-5 ovarian
UACC-62 melanoma = system: UACC-62 melanoma
SK-MEL-5 melanoma = system: SK-MEL-5 melanoma
CCRF-CEM leukemia = system: CCRF-CEM leukemia
SF-539 CNS = system: SF-539 CNS
OVCAR-3 ovarian = system: OVCAR-3 ovarian
SNB-75 CNS = system: SNB-75 CNS
SR leukemia = system: SR leukemia
ACHN renal = system: ACHN renal
U251 CNS = system: U251 CNS
HOP-62 NSCLC = system: HOP-62 NSCLC
OVCAR-8 ovarian = system: OVCAR-8 ovarian
KM12 colon = system: KM12 colon
NCI-H460 lung = system: NCI-H460 lung
HCT-15 colon = system: HCT-15 colon
MOLT-4 leukemia = system: MOLT-4 leukemia
LXFL 529 NSCLC = system: LXFL 529 NSCLC
SN12C renal = system: SN12C renal
HOP-92 NSCLC = system: HOP-92 NSCLC
MDA-N = system: MDA-N
MDA-MB-435 = system: MDA-MB-435
SNB-78 CNS = system: SNB-78 CNS
M14 melanoma = system: M14 melanoma
SK-MEL-28 melanoma = system: SK-MEL-28 melanoma
LOX IMVI melanoma = system: LOX IMVI melanoma
HL-60(TB) leukemia = system: HL-60(TB) leukemia
HS 578T breast = system: HS 578T breast
A498 renal = system: A498 renal
MALME-3M melanoma = system: MALME-3M melanoma
RPMI-8226 leukemia = system: RPMI-8226 leukemia
NCI-H23 lung = system: NCI-H23 lung
CAKI-1 renal = system: CAKI-1 renal
NCI/ADR-RES ovarian = system: NCI/ADR-RES ovarian
COLO 205 colon = system: COLO 205 colon
EKVX NSCLC = system: EKVX NSCLC
BT-549 breast = system: BT-549 breast
PC-3 prostate = system: PC-3 prostate
K-562 leukemia = system: K-562 leukemia
UACC-257 melanoma = system: UACC-257 melanoma
DMS 114 small cell lung = system: DMS 114 small cell lung
NCI-H226 lung = system: NCI-H226 lung
DMS 273 small cell lung = system: DMS 273 small cell lung

SMILES: c1nc(N2CC2)c2cnn(C3CCCCO3)c2n1 (stereo not given)
- TGI (SK-MEL-2 melanoma): > 100 µM
- TGI (M19-MEL melanoma): > 100 µM
- TGI (NCI-H522 lung): > 100 µM
- TGI (SK-OV-3 ovarian): > 100 µM
- TGI (SF-268 CNS): > 100 µM
- TGI (OVCAR-4 ovarian): > 100 µM
- TGI (HCC-2998 colon): > 100 µM
- TGI (RXF 393 renal): > 100 µM
- TGI (SF-295 CNS): > 100 µM
- TGI (TK-10 renal): > 100 µM
- TGI (SNB-19 CNS): > 100 µM
- TGI (MCF7 breast): > 100 µM
- TGI (T-47D breast): > 100 µM
- TGI (A549 NSCLC): > 100 µM
- TGI (KM20L2 colon): > 100 µM
- TGI (HCT-116 colon): > 100 µM
- TGI (HT29 colon): > 100 µM
- TGI (786-0 renal): > 100 µM
- TGI (XF 498 CNS): > 100 µM
- TGI (SW-620 colon): > 100 µM
- TGI (UO-31 renal): > 100 µM
- TGI (IGROV1 ovarian): > 100 µM
- TGI (DU-145 prostate): > 100 µM
- TGI (MDA-MB-231 breast): > 100 µM
- TGI (DLD-1 colon): > 100 µM
- TGI (OVCAR-5 ovarian): > 100 µM
- TGI (UACC-62 melanoma): > 100 µM
- TGI (SK-MEL-5 melanoma): > 100 µM
- TGI (CCRF-CEM leukemia): > 100 µM
- TGI (SF-539 CNS): > 100 µM
- TGI (OVCAR-3 ovarian): > 100 µM
- TGI (SNB-75 CNS): > 100 µM
- TGI (SR leukemia): > 100 µM
- TGI (ACHN renal): > 100 µM
- TGI (U251 CNS): > 100 µM
- TGI (HOP-62 NSCLC): > 100 µM
- TGI (OVCAR-8 ovarian): > 100 µM
- TGI (KM12 colon): > 100 µM
- TGI (NCI-H460 lung): > 100 µM
- TGI (HCT-15 colon): > 100 µM
- TGI (MOLT-4 leukemia): > 100 µM
- TGI (LXFL 529 NSCLC): > 100 µM
- TGI (SN12C renal): > 100 µM
- TGI (HOP-92 NSCLC): > 100 µM
- TGI (MDA-N): > 100 µM
- TGI (MDA-MB-435): > 100 µM
- TGI (SNB-78 CNS): > 100 µM
- TGI (M14 melanoma): > 100 µM
- TGI (SK-MEL-28 melanoma): > 100 µM
- TGI (LOX IMVI melanoma): > 100 µM
- TGI (HL-60(TB) leukemia): > 100 µM
- TGI (HS 578T breast): > 100 µM
- TGI (A498 renal): > 100 µM
- TGI (MALME-3M melanoma): > 100 µM
- TGI (RPMI-8226 leukemia): > 100 µM
- TGI (NCI-H23 lung): > 100 µM
- TGI (CAKI-1 renal): > 100 µM
- TGI (NCI/ADR-RES ovarian): > 100 µM
- TGI (COLO 205 colon): > 100 µM
- TGI (EKVX NSCLC): > 100 µM
- TGI (BT-549 breast): > 100 µM
- TGI (PC-3 prostate): > 100 µM
- TGI (K-562 leukemia): > 100 µM
- TGI (UACC-257 melanoma): > 100 µM
- TGI (DMS 114 small cell lung): > 100 µM
- TGI (NCI-H226 lung): > 100 µM
- TGI (DMS 273 small cell lung): > 100 µM

SMILES: Cc1cc2cc3c(cc2c(-c2ccc([N+](=O)[O-])cc2)n1)OCO3
- TGI (SK-MEL-2 melanoma): > 100 µM
- TGI (NCI-H522 lung): 40.6 µM
- TGI (SK-OV-3 ovarian): 71.2 µM
- TGI (SF-268 CNS): > 100 µM
- TGI (OVCAR-4 ovarian): 56.8 µM
- TGI (HCC-2998 colon): > 100 µM
- TGI (RXF 393 renal): > 100 µM
- TGI (SF-295 CNS): > 100 µM
- TGI (TK-10 renal): > 100 µM
- TGI (SNB-19 CNS): > 100 µM
- TGI (MCF7 breast): > 100 µM
- TGI (T-47D breast): > 100 µM
- TGI (A549 NSCLC): > 100 µM
- TGI (HCT-116 colon): > 100 µM
- TGI (HT29 colon): > 100 µM
- TGI (786-0 renal): 42.5 µM
- TGI (SW-620 colon): > 100 µM
- TGI (UO-31 renal): > 100 µM
- TGI (IGROV1 ovarian): 54.9 µM
- TGI (DU-145 prostate): > 100 µM
- TGI (MDA-MB-231 breast): 84.4 µM
- TGI (OVCAR-5 ovarian): > 100 µM
- TGI (UACC-62 melanoma): 67.2 µM
- TGI (SK-MEL-5 melanoma): > 100 µM
- TGI (CCRF-CEM leukemia): > 100 µM
- TGI (SF-539 CNS): 72.4 µM
- TGI (OVCAR-3 ovarian): > 100 µM
- TGI (SNB-75 CNS): 58.4 µM
- TGI (SR leukemia): > 100 µM
- TGI (ACHN renal): > 100 µM
- TGI (U251 CNS): > 100 µM
- TGI (HOP-62 NSCLC): 40 µM
- TGI (OVCAR-8 ovarian): > 100 µM
- TGI (KM12 colon): > 100 µM
- TGI (NCI-H460 lung): > 100 µM
- TGI (HCT-15 colon): > 100 µM
- TGI (MOLT-4 leukemia): > 100 µM
- TGI (SN12C renal): > 100 µM
- TGI (HOP-92 NSCLC): 56.8 µM
- TGI (MDA-N): > 100 µM
- TGI (MDA-MB-435): > 100 µM
- TGI (M14 melanoma): > 100 µM
- TGI (SK-MEL-28 melanoma): > 100 µM
- TGI (LOX IMVI melanoma): > 100 µM
- TGI (HL-60(TB) leukemia): > 100 µM
- TGI (HS 578T breast): > 100 µM
- TGI (A498 renal): > 100 µM
- TGI (MALME-3M melanoma): > 100 µM
- TGI (RPMI-8226 leukemia): > 100 µM
- TGI (NCI-H23 lung): > 100 µM
- TGI (CAKI-1 renal): > 100 µM
- TGI (NCI/ADR-RES ovarian): > 100 µM
- TGI (COLO 205 colon): > 100 µM
- TGI (EKVX NSCLC): > 100 µM
- TGI (BT-549 breast): 73.7 µM
- TGI (PC-3 prostate): > 100 µM
- TGI (K-562 leukemia): > 100 µM
- TGI (UACC-257 melanoma): > 100 µM
- TGI (NCI-H226 lung): 89.8 µM

SMILES: O=C(CC1(O)C(=O)Nc2ccccc21)c1ccncc1 (stereo not given)
- TGI (SK-MEL-2 melanoma): > 100 µM
- TGI (M19-MEL melanoma): > 100 µM
- TGI (NCI-H522 lung): > 100 µM
- TGI (SK-OV-3 ovarian): > 100 µM
- TGI (SF-268 CNS): > 100 µM
- TGI (OVCAR-4 ovarian): > 100 µM
- TGI (HCC-2998 colon): > 100 µM
- TGI (RXF 393 renal): > 100 µM
- TGI (SF-295 CNS): > 100 µM
- TGI (SNB-19 CNS): > 100 µM
- TGI (A549 NSCLC): > 100 µM
- TGI (KM20L2 colon): > 100 µM
- TGI (HCT-116 colon): > 100 µM
- TGI (HT29 colon): > 100 µM
- TGI (786-0 renal): > 100 µM
- TGI (SW-620 colon): > 100 µM
- TGI (UO-31 renal): > 100 µM
- TGI (IGROV1 ovarian): > 100 µM
- TGI (DLD-1 colon): > 100 µM
- TGI (OVCAR-5 ovarian): > 100 µM
- TGI (UACC-62 melanoma): > 100 µM
- TGI (SK-MEL-5 melanoma): > 100 µM
- TGI (CCRF-CEM leukemia): > 100 µM
- TGI (SF-539 CNS): > 100 µM
- TGI (SNB-75 CNS): > 100 µM
- TGI (SR leukemia): > 100 µM
- TGI (ACHN renal): > 100 µM
- TGI (U251 CNS): > 100 µM
- TGI (NCI-H460 lung): > 100 µM
- TGI (HCT-15 colon): > 100 µM
- TGI (MOLT-4 leukemia): > 100 µM
- TGI (LXFL 529 NSCLC): > 100 µM
- TGI (SN12C renal): > 100 µM
- TGI (HOP-92 NSCLC): > 100 µM
- TGI (SNB-78 CNS): > 100 µM
- TGI (M14 melanoma): > 100 µM
- TGI (SK-MEL-28 melanoma): > 100 µM
- TGI (LOX IMVI melanoma): > 100 µM
- TGI (HL-60(TB) leukemia): > 100 µM
- TGI (A498 renal): > 100 µM
- TGI (RPMI-8226 leukemia): > 100 µM
- TGI (NCI-H23 lung): > 100 µM
- TGI (CAKI-1 renal): > 100 µM
- TGI (COLO 205 colon): > 100 µM
- TGI (EKVX NSCLC): > 100 µM
- TGI (K-562 leukemia): > 100 µM
- TGI (DMS 114 small cell lung): > 100 µM
- TGI (NCI-H226 lung): > 100 µM
- TGI (DMS 273 small cell lung): > 100 µM
